This is an account of results in ChEMBL document CHEMBL1149805, “Antibacterial activity of a novel series of 3-bromo-4-(1H-3-indolyl)-2,5-dihydro-1H-2,5-pyrroledione derivatives--an extended structure-activity relationship study” (Eur J Med Chem, 2008).

Usually MIC stands for the smallest concentration in the dilution series that meets the test's criterion for growth inhibition. By logP is commonly meant the decadic logarithm of the partition coefficient of the neutral form, usually between octanol and water. The low end stands for a more hydrophilic compound, the high end for a more lipophilic compound.

In brackets after ≈: the same amount, converted by molar mass. Activity calls are given as the source filed them.

One data set relates to Staphylococcus aureus. Kind of data set: Antibacterial activity against Staphylococcus aureus 134/93 after 24 hrs by broth microdilution method. The data set is classed as functional. As to conditions: for MIC: Staphylococcus aureus, 134/93, 24 h.
Data set [1] has as its system Mycolicibacterium smegmatis. Kind of data set: Antibacterial activity against Mycobacterium smegmatis SG987 after 24 hrs by broth microdilution method. The data set is classed as functional. As to conditions: for MIC: Mycolicibacterium smegmatis, SG987, 24 h.
For a further data set, the system named is Escherichia coli. Kind of data set: Antibacterial activity against Escherichia coli after 24 hrs by broth microdilution method. Type of data set: functional, organism-based.
A further data set deals with Candida albicans. Kind of data set: Antibacterial activity against Candida albicans after 24 hrs by broth microdilution method. Type of data set: functional, organism-based. On the technique in general: Dilution methods test growth across graded concentrations, often in twofold steps.
The nature of data set [2]: Partition coefficient, log P of the compound. Type of data set: physicochemical. As to conditions: octanol/water.

On to `Cc1cccc2c(C3=C(Br)C(=O)NC3=O)c(-c3ccccc3)[nH]c12`, for which the results for the “-logMIC” value (in the data set with Staphylococcus aureus; in data set [1]) were 5.4 and 4.5, respectively. Moreover, the MIC amounted to 3.98 µM (≈ 1.52 µg/mL) against Staphylococcus aureus and 32.6 µM (≈ 12.4 µg/mL) in data set [1]. Also, the outcome in the data set with Escherichia coli and in the data set with Candida albicans was inactive. The compound further had a logP in data set [2] of 3.19.

As to `O=C(CCCCCCc1[nH]c2ccccc2c1C1=C(Br)C(=O)NC1=O)Nc1ccccc1`, the “-logMIC” value in the data set on Staphylococcus aureus stood at 7; in data set [1] it was 4.9. In addition, the MIC in the data set on Staphylococcus aureus came out at 0.1 µM (≈ 0.0494 µg/mL); in data set [1], 12.6 µM (≈ 6.23 µg/mL). Besides, the result in the data set on Escherichia coli and with Candida albicans was inactive. Further, the logP in data set [2] was found to be 2.85.

As to `Cc1ccccc1NC(=O)CCCc1[nH]c2ccccc2c1C1=C(Br)C(=O)NC1=O`, the figures for the “-logMIC” value (in the data set with Staphylococcus aureus; in data set [1]) were 6.5 and 4.8, respectively. Besides, the values for the MIC (against Staphylococcus aureus; in data set [1]) were 0.32 µM (≈ 0.149 µg/mL) and 17.1 µM (≈ 7.97 µg/mL), respectively. Further, the result in the data set on Escherichia coli and with Candida albicans was inactive. Also, the logP in data set [2] is 2.56.

For the compound `O=C(O)c1cn(C2CC2)c2cc(N3CCNCC3)c(F)cc2c1=O` [CIPROFLOXACIN], in the data set on Staphylococcus aureus, the “-logMIC” value is 4.4 and it took 38.1 µM (≈ 12.6 µg/mL) to inhibit growth (MIC). Also, in data set [1], the “-logMIC” value was 5.9 and inhibition of growth (MIC) required 1.2 µM (≈ 0.398 µg/mL).

Turning to `CCCCCCOc1ccc2[nH]c(-c3ccc(OC)cc3)c(C3=C(Br)C(=O)NC3=O)c2c1`, the outcome in the data set with Escherichia coli and in the data set with Candida albicans was inactive. In addition, in data set [2], the logP is 4.1.

In the case of `CCCCCCc1ccc2[nH]c(-c3ccccc3)c(C3=C(Br)C(=O)NC3=O)c2c1`, the result with Escherichia coli and with Candida albicans was inactive. In data set [2], the logP is 4.39.

For the compound `CCCCCCc1ccc2[nH]c(-c3ccc(OC)cc3)c(C3=C(Br)C(=O)NC3=O)c2c1`, the result with Escherichia coli and in the data set on Candida albicans was inactive.

With `CCCCOc1ccc2[nH]c(-c3ccc(OC)cc3)c(C3=C(Br)C(=O)NC3=O)c2c1`, in the data set with Staphylococcus aureus, the “-logMIC” value is given as 7 and the MIC was determined as 0.1 µM (≈ 0.0469 µg/mL). Moreover, in the data set on Escherichia coli, the outcome was inactive. Besides, the result in the data set with Candida albicans was inactive. The logP in data set [2] came out at 3.43.

Regarding `CCCCCCOc1ccc2[nH]c(-c3ccccc3)c(C3=C(Br)C(=O)NC3=O)c2c1`, the result with Escherichia coli and in the data set on Candida albicans was inactive. The logP in data set [2] was 4.08.

As for `CCCCCCCCCCOc1ccc(-c2[nH]c3ccccc3c2C2=C(Br)C(=O)NC2=O)cc1`, the “-logMIC” value in data set [1] came out at 4. Inhibition of growth in data set [1] (MIC) required 100 µM (≈ 52.3 µg/mL). Further, the outcome in the data set on Escherichia coli and in the data set with Candida albicans was inactive. This compound yielded a logP in data set [2] of 5.94.

`CCCCc1cccc2c(C3=C(Br)C(=O)NC3=O)c(-c3ccc(OC)cc3)[nH]c12`: in the data set with Staphylococcus aureus, the “-logMIC” value was 6.6 and the MIC came out at 0.25 µM (≈ 0.113 µg/mL). Moreover, the result with Escherichia coli was inactive. Moreover, the result in the data set on Candida albicans was inactive. Further, the logP in data set [2] stood at 3.81.

Turning to `CCCOc1ccc2[nH]c(-c3ccc(OC)cc3)c(C3=C(Br)C(=O)NC3=O)c2c1`, the “-logMIC” value in the data set on Staphylococcus aureus was found to be 6.4. The same compound gave an MIC against Staphylococcus aureus of 0.44 µM (≈ 0.2 µg/mL). Further, the outcome in the data set with Escherichia coli and in the data set on Candida albicans was inactive. This compound also displayed a logP in data set [2] of 3.12.

On to `CCCCCOc1ccc2[nH]c(-c3ccc(OC)cc3)c(C3=C(Br)C(=O)NC3=O)c2c1`, for which the outcome in the data set on Escherichia coli and in the data set on Candida albicans was inactive. This compound registered a log partition coefficient (logP) in data set [2] of 3.77.

In the case of `CCCCCCc1cccc2c(C3=C(Br)C(=O)NC3=O)c(-c3ccc(OC)cc3)[nH]c12`, in the data set on Staphylococcus aureus, the “-logMIC” value was 6.4 and the lowest concentration to inhibit growth (MIC) was 0.4 µM (≈ 0.193 µg/mL). Further, the result in the data set with Escherichia coli was inactive. Besides, in the data set with Candida albicans, the result was inactive. This compound gave a lipophilicity (logP) in data set [2] of 4.27.
